{"source": "patent US20100048657A1", "about": "“CONTROL OF MALIGNANT CELLS PROLIFERATION THROUGH THE INHIBITION OF CASEIN KINASE 2” (CLEVELAND STATE UNIVERSITY, priority 2006, published 2010)", "key": {"MEG-01 cells [1]": {"test_system": "MEG-01 cells", "experiment": "Viability (proliferation) assay, Trypan blue exclusion", "details": "for proliferation rate / cell number of MEG-01 cells: 4 days of treatment", "description": "In order to check the effect of CK2 inhibitors, the treatments length went up to 4, 5 days without splitting.\nCells were counted using a Neubauer hemacytometer. Trypan blue dye was used according to the manufacturer (Sigma-Aldrich, cat. # T8154).\nCell number (as cells/ml) was estimated using the formula [(total count/0.1)/total surface area counted]*(dilution factor), where 0.1 is the chamber depth, considering the appropriate area counted, half dilution for Trypan blue was considered in calculations. Countings were done as quadruplicates every 24 hours.\nQuadruplicates values were used for each sample. Experiments were repeated at least 4 times, in order to see if the trend is correct and reproducible."}, "MEG-01 cells [2]": {"test_system": "MEG-01 cells", "experiment": "Thrombocytopoiesis / proplatelet formation by light, DAPI fluorescence and SEM microscopy", "assay_type": "cell-based, human", "details": "for thrombocytopoiesis: MEG-01 cells", "method": "For observing the cells with light microscopy and to be able to provide a matrix for them to adhere, Fibronectin (FN), was used at 5 μg/cm^2 and incubated at 37° C. for 1 h, as a coat for the culture dish (6 well plates usually), as recommended by the provider (BD Biosciences, Bedford, Mass., USA) (Jiang et al., 2002).\nCell pictures were routinely taken in the laboratory of using an Olympus CK40 microscope, and the NIH Image software. High quality pictures and live imaging were taken at Cleveland Clinic Foundation Imaging Core.\nDAPI staining of cultured MEG-01 cells was done with fresh cells, for live imaging.\nDifferent concentrations of inhibitors were used, and both floating as well as fibronectin bound cells were examined. Proplatelets producing cells were observed as early as from the second day (after 24 hours), but in the third and forth days proplatelets formation was enhanced. […] When such a cell was identified, efforts were taken to focus on it and pictures were taken every 10 seconds for one day.\nCell preparation and pictures were done at the Microscopy Core Facility Cleveland Clinic. Cells were grown for 4 days with DMAT 10 μM and then collected by differential centrifugation. Cells were fixed in glutaraldehyde buffer and then further processed at the Core. The clot was prepared with platelets collected from MEG-01 cultures treated with DMAT 10 μM. Human thrombin 0.5 U/ml for 15 minutes was used to activate them. Then the clot was fixed in suspension.\nReferring to FIGS. 10-15, DAPI staining of live MEG-01 cells is illustrated. Apoptotic morphology of MEG-01 cells. In FIG. 10, proplatelets formation in suspension, result of DMAT treatment (10 μM) is shown. FIG. 11 depicts proplatelets formation on Fibronectin, result of DMAT treatment (10 μM). […] This image represents the DAPI staining of cells from FIG. 11. […] FIG. 14 also illustrates phase contrast micrograph of live MEG-01 cells untreated in the 3rd to the 4th day (DMSO), 20×. FIG. 15 illustrates phase contrast micrograph of live MEG-01 cells treated with DMAT 10 μM in the 3rd to the 4th day, 20×. To summarize, FIGS. 10-15 show chromatin condensation, blebbing, cytoplasmic and nuclear fragmentation, as well as polyploidy (increase in the size of the nucleus) of MEG-01 cells following DMAT treatment."}, "[3]": {"test_system": "platelets from MEG-01 cells", "experiment": "Activation and function of platelets produced by treated MEG-01 cultures (flow cytometry, clot SEM)", "assay_type": "cell-based, human", "details": "for function of platelets obtained in culture: platelets released from treated MEG-01 cells", "method": "Platelets were also separated from the megakaryocytic cells, by differential centrifugation (Zunino et al., 2001), considering the big size difference between these cells (1-5 μm for platelets and 35-150 μm for megakaryocytic cell line MEG-01) and analyzed separately. Suspension cells were centrifuged first at 100 g to 150 g for 15 minutes, and then the platelets-rich supernatant was kept and centrifuged again at 800 g for 15 minutes. The platelets pellet was resuspended in the appropriate buffer (Tyrode's buffer, pH 7.4), for analysis. For impeding artefactual aggregation of platelets in the control, EDTA and RGDS or RGD were added in the cell suspension from the beginning of the centrifugations. Therefore the control was the inactivated platelets. Special caution was used in order to avoid as much as possible artefactual activation of the control, therefore centrifugations were done at room temperature, no unnecessary washing, no vortexing, gentle removal of supernatants.\nMonoclonal antibody PAC-1 recognizes an epitope on the glycoprotein αIIbβ3 of activated platelets. PAC-1 binds only to the activated platelets, and so is very specific. PAC-1 will not bind EDTA and RGD or RGDS treated platelets (Shattil et al., 1987; Shattil et al., 1985; Shattil and Leavitt, 2001).\n10 mg/ml RGD or RGDS and 100 mM EDTA were used for negative control (inactivated) on resting platelets.\nPAC-1-FITC was purchased from Becton Dickinson Immunocytometry Systems, San Jose, Calif., USA. 20 μl PAC-1-FITC were used for 5 μl fresh platelets suspension, in Tyrode's buffer with CaCl2, as recommended for whole blood by the provider. Different agonists were used, like 1 μg/ml TRAP, 100 nM PMA, as final concentrations (Chen et al., 2004). Activation time was 10-15 minutes.\nBD Biosciences protocol for staining was used, with incubation for 30 minutes, in dark, at room temperature.\nCD62P is a monoclonal antibody that recognizes an epitope on P-Selectin. P-Selectin is exposed as response to agonist and is a specific sign of platelet activation. 20 μl CD62P-FITC were used for 5 μl fresh platelets suspension, in Tyrode's buffer with CaCl2. Different agonists were used, like 1 μg/ml TRAP, 100 nM PMA or 20 μM ADP as final concentrations. Activation time was 10 minutes. The staining volume was chosen by titration, small volumes giving better staining. Incubation was done in dark at room temperature for 30 minutes, as recommended by BD Biosciences. These assays were done on fresh platelets.\nHuman fibrinogen was conjugated with Alexa Fluor 488 fluorochrome (F-13191, from Molecular Probes, OR, USA) following recommended Molecular Probes procedure, with the modification that instead the column step, a dialysis step was chosen, in order to obtain a better attachment of dye molecules to fibrinogen. Final concentration of fibrinogen conjugated Alexa Fluor 488 was determined spectrophotometrically. For platelet activation, different agonists were used, like 1 μg/ml TRAP, 100 nM PMA or 20 μM ADP as final concentrations. Activation time was 10-15 minutes. 300 nM labeled fibrinogen was incubated as a final concentration with platelets suspension for 30 minutes, in dark, at room temperature. Fresh platelets were used.\nPlatelets expose PS when activated and undergo shape change. They will stain positive for AnnexinV (a marker of PS exposure) and will move up on the SSC, FSC as a result of the shape change. For this assay, AnnexinV-FITC from BDBiosciences was used, as recommended by the manufacturer with the specification that the reaction volumes were decreased. Incubation was done in dark, at room temperature for 30 minutes, after activation for 10 minutes of platelets with agonist (like 1 μg/ml TRAP, 100 nM PMA or 20 μM ADP as final concentrations).\nCell preparation and pictures were done at the Microscopy Core Facility Cleveland Clinic. Cells were grown for 4 days with DMAT 10 μM and then collected by differential centrifugation. […]"}, "[4]": {"details": "50 μM, fourth and fifth days (TBB p<0.01, DMAT p<0.005)"}, "[5]": {"details": "platelets from 10 μM treatment, agonist TRAP"}}, "data": [{"compound": "Brc1c(Br)c(Br)c2[nH]nnc2c1Br", "note": "[TBB, 4,5,6,7-tetrabromobenzotriazole]", "values": [{"measurement": "proliferation (viability) versus Control untreated (DMSO)", "setting": "MEG-01 cells [1]; [4]", "result": "very significant statistical differences"}, {"measurement": "proliferation rate / cell number of MEG-01 cells", "setting": "MEG-01 cells [1]; 100 μM", "result": "maintained a steady number of cells for the 4 days of treatment and induced extremely significant reduction in the proliferation rate"}, {"measurement": "proliferation (viability) versus Control untreated (DMSO)", "setting": "MEG-01 cells [1]; 100 μM, fourth and fifth days, p<0.005", "result": "very significant statistical differences"}, {"measurement": "concentration at which the inhibitor had effect", "setting": "MEG-01 cells [1]; proliferation arrest and induced apoptosis, TBB concentration required for the same effect as DMAT", "result": 50, "unit": "µM"}, {"measurement": "thrombocytopoiesis", "setting": "MEG-01 cells [2]", "result": "induced thrombocytopoiesis"}, {"measurement": "function of platelets obtained in culture", "setting": "[3]", "result": "functional"}]}, {"compound": "CN(C)c1nc2c(Br)c(Br)c(Br)c(Br)c2[nH]1", "note": "[DMAT, 2-dimethylamino-4,5,6,7-tetrabromo-1H-benzimidazole]", "values": [{"measurement": "proliferation (viability) versus Control untreated (DMSO)", "setting": "MEG-01 cells [1]; 25 μM, fourth and fifth days, p<0.01", "result": "very significant statistical differences"}, {"measurement": "proliferation rate / cell number of MEG-01 cells", "setting": "MEG-01 cells [1]; 50 μM", "result": "maintained a steady number of cells for the 4 days of treatment and induced extremely significant reduction in the proliferation rate"}, {"measurement": "proliferation (viability) versus Control untreated (DMSO)", "setting": "MEG-01 cells [1]; [4]", "result": "very significant statistical differences"}, {"measurement": "cell surface phenotype by SEM", "setting": "MEG-01 cells [2]; 10 μM, 3 to 4 days", "result": "Pseudopodia and proplatelets formation, as well as blebbing can be observed"}, {"measurement": "maturation and proplatelet formation", "setting": "MEG-01 cells [2]; 10 μM, as early as from the second day, in suspension and on fibronectin", "result": "induced MEG-01 cells to mature and form proplatelets extensions"}, {"measurement": "thrombocytopoiesis", "setting": "MEG-01 cells [2]", "result": "induced thrombocytopoiesis"}, {"measurement": "platelet shape change", "setting": "[3]; agonists: human thrombin, TRAP, ADP, PMA", "result": "capable of undergoing shape change in response to agonists"}, {"measurement": "clot formation by platelets", "setting": "[3]; platelets from 10 μM treatment, activated with 0.5 U/ml thrombin", "result": "form a fibrin clot"}, {"measurement": "P-Selectin exposure of activated platelets", "setting": "[3]; [5]", "result": "expose P-Selectin"}, {"measurement": "PAC-1 staining of activated platelets", "setting": "[3]; [5]", "result": "stain positive for PAC-1"}, {"measurement": "fibrinogen binding of activated platelets", "setting": "[3]; [5]", "result": "bind fibrinogen"}, {"measurement": "function of platelets obtained in culture", "setting": "[3]", "result": "functional"}]}]}
